# Source: ChEMBL document CHEMBL4382233, “Discovery of novel arylethenesulfonyl fluorides as potential candidates against methicillin-resistant of Staphylococcus aureus (MRSA) for overcoming multidrug resistance of bacterial infections” (2019)
# Calls of active or inactive are those of the source. The calls are words filed in the database; no cut-off is given here.
# Columns and labels:
# Staphylococcus aureus [1] = test: Antibiofilm activity against methicillin-resistant Staphylococcus aureus at 2 times MIC after 24 hrs by crystal violet staining-based UV-visible spectrophotometric analysis; assay type: functional, organism-based
# Staphylococcus aureus [2] = test: Antibiofilm activity against methicillin-resistant Staphylococcus aureus planktonic biofilm assessed as optical density at 492 nm at MIC after 24 hrs by crystal violet staining-based UV-visible spectrophotometric analysis; assay type: functional
# Staphylococcus aureus [3] = test: Antibacterial activity against methicillin-resistant Staphylococcus aureus assessed as zone of inhibition at 200 ng/mL after 24 hrs by agar disc diffusion method; assay type: functional; details: read-out: IZ
# Staphylococcus aureus [4] = test: Induction of cellular content release in methicillin-resistant Staphylococcus aureus assessed as DNA content by measuring optical density at 260 nm at MIC after 240 mins by UV-visible spectrophotometric analysis; assay type: functional
# Staphylococcus aureus [5] = test: Antibacterial activity against methicillin-resistant Staphylococcus aureus assessed as zone of inhibition at 50 ug/mL after 24 hrs by agar disc diffusion method; assay type: functional; details: read-out: IZ
# [6] = test system: Staphylococcus haemolyticus; test: Antibacterial activity against methicillin-resistant Staphylococcus haemolyticus assessed as zone of inhibition at 200 ng/mL after 24 hrs by agar disc diffusion method; assay type: functional; details: read-out: IZ
# Staphylococcus aureus [7] = test: Antibacterial activity against methicillin-resistant Staphylococcus aureus assessed as zone of inhibition at 800 ng/mL after 24 hrs by agar disc diffusion method; assay type: functional; details: read-out: IZ
# [8] = test system: Staphylococcus haemolyticus; test: Antibacterial activity against methicillin-resistant Staphylococcus haemolyticus assessed as zone of inhibition at 50 ug/mL after 24 hrs by agar disc diffusion method; assay type: functional; details: read-out: IZ
# [9] = test system: Staphylococcus haemolyticus; test: Antibacterial activity against methicillin-resistant Staphylococcus haemolyticus assessed as zone of inhibition at 800 ng/mL after 24 hrs by agar disc diffusion method; assay type: functional; details: read-out: IZ
# Staphylococcus aureus [10] = test: Antibacterial activity against methicillin-resistant Staphylococcus aureus assessed as zone of inhibition at 400 ng/mL after 24 hrs by agar disc diffusion method; assay type: functional; details: read-out: IZ
# [11] = test system: Staphylococcus epidermidis; test: Antibacterial activity against methicillin-resistant Staphylococcus epidermidis assessed as zone of inhibition at 20 ug/mL after 24 hrs by agar disc diffusion method; assay type: functional; details: read-out: IZ
# [12] = test system: Staphylococcus haemolyticus; test: Antibacterial activity against methicillin-resistant Staphylococcus haemolyticus assessed as zone of inhibition at 400 ng/mL after 24 hrs by agar disc diffusion method; assay type: functional; details: read-out: IZ
# Staphylococcus aureus [13] = test: Antibacterial activity against methicillin-resistant Staphylococcus aureus after overnight incubation by micro broth dilution analysis; assay type: functional
# [14] = test system: Staphylococcus epidermidis; test: Antibacterial activity against methicillin-resistant Staphylococcus epidermidis after overnight incubation by micro broth dilution analysis; assay type: functional
# [15] = test system: Staphylococcus haemolyticus; test: Antibacterial activity against methicillin-resistant Staphylococcus haemolyticus after overnight incubation by micro broth dilution analysis; assay type: functional
# Staphylococcus aureus [16] = test: Antibiofilm activity against methicillin-resistant Staphylococcus aureus at MIC after 24 hrs by crystal violet staining-based UV-visible spectrophotometric analysis; assay type: functional, organism-based
# [17] = test system: Staphylococcus epidermidis; test: Antibacterial activity against methicillin-resistant Staphylococcus epidermidis assessed as zone of inhibition at 800 ng/mL after 24 hrs by agar disc diffusion method; assay type: functional; details: read-out: IZ
# [18] = test system: Staphylococcus epidermidis; test: Antibacterial activity against methicillin-resistant Staphylococcus epidermidis assessed as zone of inhibition at 400 ng/mL after 24 hrs by agar disc diffusion method; assay type: functional; details: read-out: IZ
# [19] = test system: Staphylococcus epidermidis; test: Antibacterial activity against methicillin-resistant Staphylococcus epidermidis assessed as zone of inhibition at 200 ng/mL after 24 hrs by agar disc diffusion method; assay type: functional; details: read-out: IZ
Compound,Activity (Staphylococcus aureus [1]),OD (Staphylococcus aureus [2]),zone of inhibition at 0.2 µg/mL (Staphylococcus aureus [3]),OD (Staphylococcus aureus [4]),zone of inhibition at 50 µg/mL (Staphylococcus aureus [5]),zone of inhibition at 0.2 µg/mL [6],zone of inhibition at 0.8 µg/mL (Staphylococcus aureus [7]),zone of inhibition at 50 µg/mL [8],zone of inhibition at 0.8 µg/mL [9],zone of inhibition at 0.4 µg/mL (Staphylococcus aureus [10]),zone of inhibition at 20 µg/mL [11],zone of inhibition at 0.4 µg/mL [12],MIC99 (Staphylococcus aureus [13]),MIC99 [14],MIC99 [15],Activity (Staphylococcus aureus [16]),zone of inhibition at 0.8 µg/mL [17],zone of inhibition at 0.4 µg/mL [18],zone of inhibition at 0.2 µg/mL [19]
GENTAMICIN,Active,0.808,–,–,–,–,–,–,–,–,–,–,–,–,–,–,–,–,–
O=[N+]([O-])c1ccc(/C=C/S(=O)(=O)F)cc1,Active,–,5.1 mm,1.35,8.12 mm,4.1 mm,10.1 mm,7.3 mm,7.4 mm,7.2 mm,6.2 mm,5.2 mm,0.823 µg/mL,58.2 µg/mL,0.833 µg/mL,–,–,–,–
COc1cccc(/C=C/S(=O)(=O)F)c1,Active,–,4.1 mm,1.56,9.1 mm,–,9.1 mm,6.3 mm,–,5.2 mm,4.3 mm,–,0.842 µg/mL,55.2 µg/mL,63.2 µg/mL,–,–,–,–
CS(=O)(=O)c1ccc(/C=C/S(=O)(=O)F)cc1,–,0.718,4.1 mm,1.45,10.3 mm,–,7.1 mm,–,–,5.2 mm,4.2 mm,–,15.1 µg/mL,50 µg/mL,43.2 µg/mL,Active,–,–,–
CC(=O)c1ccc(/C=C/S(=O)(=O)F)cc1,–,–,6.2 mm,–,14.1 mm,3.3 mm,10.2 mm,7.2 mm,6.1 mm,8.2 mm,6.5 mm,5.2 mm,0.822 µg/mL,54.2 µg/mL,0.84 µg/mL,–,–,–,–
CCOC(=O)/C=C/C=C/S(=O)(=O)F,–,–,–,–,4.1 mm,0 mm,–,7.5 mm,5.1 mm,–,8.2 mm,3.2 mm,40.3 µg/mL,47 µg/mL,56.1 µg/mL,–,3.1 mm,4.1 mm,3.3 mm
O=S(=O)(F)/C=C/c1cccc2ccccc12,Active,–,4.2 mm,1.48,9.2 mm,–,9.2 mm,4.1 mm,–,6.2 mm,5.5 mm,–,0.82 µg/mL,47 µg/mL,51 µg/mL,–,–,–,–
COc1ccccc1/C=C/S(=O)(=O)F,Active,–,–,–,5.2 mm,3.2 mm,–,12.2 mm,7.1 mm,–,7.2 mm,5.2 mm,69.1 µg/mL,0.829 µg/mL,0.837 µg/mL,–,8.4 mm,7.2 mm,5.1 mm
O=Cc1cccc(/C=C/S(=O)(=O)F)c1,–,–,3.1 mm,–,10.3 mm,2.2 mm,4.2 mm,8.2 mm,6.1 mm,3.5 mm,6.5 mm,5.1 mm,17.2 µg/mL,41.1 µg/mL,0.828 µg/mL,–,–,–,–
Cc1cc(/C=C/S(=O)(=O)F)ccc1Br,Active,–,6.2 mm,1.61,12 mm,–,10.4 mm,5.3 mm,–,8.2 mm,6.3 mm,–,0.81 µg/mL,50 µg/mL,57.2 µg/mL,–,–,–,–
